The subject of one assay is protein kinase C. Put plainly: Distribution of protein kinase C activity in N-VSMC fractions. The class given is cell-based, chicken. The conditions noted are these: 100 μM H[cys] for 60 min. The procedure: FIGS. 6A-6C show the distribution of protein kinase C in the presence of H[cys], TPA and TGF β1. […] Cells were harvested and separated into cytosol membrane particulate and nuclear fractions, and PKC activity measured as described in Material and Methods. The data are reported as the mean ± standard error of eight separate determinations. (B) Immunolocalization of PKC epsilon in M- and N-VSMC. Cell cultures were plated and grown for three days prior to immunohistochemistry staining of PKC epsilon in the N-VSM (bottom) contrasted with the low levels of expression of the enzyme in M-VSMC (top). The staining can be seen in cytosol, nucleus and associated with intracellular fibers. (C) Use of PKC epsilon IgG to detect enzyme in M- and N-VSMC by western blot. The C-lane represents purified recombinant PKC epsilon; M and N are samples derived from mesoderm (abdominal ) and neurocrest & (thoracic) smooth muscle cells, respectively.
Protein kinase C activity: Protein kinase C activity was determined using a method of a previously published procedure with modifications. Wrenn, R.W. et al. (supra). […] Each of these fractions was analyzed for total PKC activity in the presence and absence of calcium chloride as described previously. […]

For assay [1], the system named is N-VSMC. Put plainly: Cell proliferation (cell number) of N-VSMC cultures. The conditions noted are these: 0.01 to 100 μM for 36 h. In kind it is cell-based, chicken.
In assay [2] the test system is mouse aortic smooth muscle cells. Put plainly: 3H thymidine uptake / mitogenic effect in mouse aortic smooth muscle cells. The class given is cell-based. The procedure: The mitogenic and other effects of growth factors are exaggerated in late embryonic or fetal smooth muscle cells, and cells in the late fetal state provide a high contrast picture of their subsequent, post-natal, responses. To take advantage of this effect, late fetal C57BL/6×129 mice were obtained and aortic smooth muscle cell cultures were prepared according to the inventors' previously published methods set forth above. These cells were treated with a series of Hcy dilutions (10 μM-100 μM) as described above. […] Subsequently, the fetal mouse smooth muscle cells were treated with a number of variations of the incubation medium containing the Hcy. In no case did Hcy produce a measurable mitogenic effect. […] Aortic smooth muscle cells were obtained from mice of this strain that were 3-6 months old, and were treated with various concentrations of Hcy.

For assay [3], the system named is human aortic smooth muscle cells. The assay is described as follows: 3H thymidine uptake in human aortic smooth muscle cells. In kind it is cell-based. The procedure: FIG. 13 is a graph illustrating 3 H thymidine uptake of human aortic smooth muscle cells in response to differing concentrations of Hcy.
Smooth muscle cell cultures were established from samples of thoracic aorta obtained during organ transplantation. Confluent early passage cells were growth arrested by serum starvation, then they were treated with Hcy in serum free (defined) medium.

For assay [4], the system named is N-VSMC. The assay is described as follows: Cell proliferation (cell number) of N-VSMC cultures. In kind it is cell-based, chicken. The conditions noted are these: 100 μM H[cys]; between day 6 and 10; 1% serum. The procedure: FIGS. 5A and 5B are graphs illustrating cell growth and DNA synthesis of N-VSMC cultures. (A) Cells were cultured in M199 supplemented with 1% FBS in the presence and absence of 100 μM H[cys]. The medium was renewed every three days and cell numbers were determined by Coulter counter or emocytometer. Each point represents the mean of quadruplicate samples counted six times. (B) Cells were grown to confluency, growth arrested in M199 and 1 μg/ml of bovine serum albumin for two days. Cultures were exposed to various concentrations of H[cys] (0.01-1000 μM) for 30 h, pulse labeled for 6 h with 2 μCi/ml of [^3H]thymidine. The amount of [^3H]thymidine incorporation was determined by scintillation spectrophotometry. Results are shown as the mean of ±S.E.M.
FIGS. 7A-7C are graphs illustrating the effect of H[cys] on diacylglycerol content in N-VSMC. (A) Time course of changes of membrane diacylglycerol content cell treated with 100μM H[cys] for the various times. Cells were recovered, membrane lipids extracted and diacylglycerol amounts determined as described in Methods. Results are expressed as the mean ± standard error of quadruplicate incubations from six independent experiments. (B) Effects of varying concentrations of H[cys] on diacylglycerol synthesis. Cells were treated for 30 min with different concentrations of H[cys] and membrane lipids were isolated and the diacylglycerol content determined. (C) Effect of PKC inhibitors on H[cys] mediated cell proliferation. N-VSMC cultures were grown in 1% FBS and 100 μM H[cys] in the presence and absence of staurosporine and cheleyrithrine chloride for the times (days-d) indicated. Cells were counted in quadruplicate in a Coulter counter every three days. Values represent the mean ±S.D. from four independent experiments.
Smooth Muscle Culture: The thoracic (N) and abdominal (M) aorta of normal 16 and 18-day embryos were cleaned of fat, and the intima-media was isolated from the adventitia. The intima-media was enzymatically dispersed into a single cell suspensions by a combination of collagenase and elastase followed by trypsin. VSMC were placed in primary culture at a constant density of 2×10^4 cells/cm^2 in multiwell plates or 100 mm culture plates in Medium 199 supplemented with 10% fetal bovine serum (FMS) and 2 mM glutamine, in an atmosphere of 95% air: 5% Co2 at 37° C. Primary cultures were grown for 7 days before they were seeded into first passage at the same cell density and grown to confluence. Experiments were carried out between passages 3-6. Experimental conditions for all cells included 48 h in Medium 199 supplemented with 1% FBS prior to initiating and experiment.

A further assay has as its system TA-VSMCs. Put plainly: [3H]thymidine labeling (DNA synthesis) in TA-VSMCs. The class given is cell-based. The conditions noted are these: 0.1 to 1 mM. The source says:
Effect of calcium channel activation on DNA synthesis. Effect of glutamate receptor calcium channels and L-type calcium channels activation was examined by measuring [^3H]thymidine labeling.

Structures are written as SMILES. Entries after “also recorded” stand apart in the source; their conditions may differ.

With `N[C@@H](CCS)C(=O)O` [homocysteine], the “distribution of PKC activity” value in the assay on protein kinase C is “significant increase in membrane-associated PKC”. For the same compound, the “cell number in the absence of serum” value in the assay on N-VSMC [1] was “no increase in cell number”. In addition, the mitogenic effect result in assay [2] (adult C57Bl/6 mice 3-6 months old, various concentrations, listed as Hcy) is reported as “no mitogenic effect; also recorded: No mitogenic result”. The 3H thymidine uptake result in assay [2] (late fetal C57BL/6×129 mice, 10 μM-100 μM) is listed as “no enhancement”. In assay [3] (human cell cultures of N-VSMC (data not shown)), the “effect on DNA synthesis” value was “observed”. Moreover, the “uptake of 3H thymidine” value in assay [3] (thoracic aorta cells, serum free medium) is given as “significant, dose-responsive increase”. For the same compound, the cell number increased in the assay on N-VSMC [4] came out at 9 fold. In the assay on TA-VSMCs, the DNA synthesis increased was found to be 6 fold.

(Values after patent US6469027B1, “N-methyl-D-aspartate (NMDA) receptor blockers for the prevention of atherosclerosis” (The Board of Regents of the University of Nebraska, priority 1996, dated 2002).)
